The target in experiment [1] is T1, Recombinant human c-Cbl (aa 47-435) (Homo sapiens, UniProt P22681).
T1 sequence (P22681 47-435): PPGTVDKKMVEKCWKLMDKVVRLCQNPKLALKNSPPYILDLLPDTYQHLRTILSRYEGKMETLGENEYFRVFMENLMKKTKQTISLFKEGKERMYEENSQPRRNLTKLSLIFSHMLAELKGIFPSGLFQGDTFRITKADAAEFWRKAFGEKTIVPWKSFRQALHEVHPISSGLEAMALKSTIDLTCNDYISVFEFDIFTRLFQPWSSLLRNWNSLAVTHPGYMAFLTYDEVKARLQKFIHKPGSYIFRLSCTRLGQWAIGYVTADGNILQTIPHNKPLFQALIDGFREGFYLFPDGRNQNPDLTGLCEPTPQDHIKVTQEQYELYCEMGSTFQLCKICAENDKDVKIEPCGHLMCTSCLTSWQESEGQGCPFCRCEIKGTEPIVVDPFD
Put plainly: c-Cbl Biochemical Assay (TR-FRET). The note with it: hc-Cbl Biochemical Assay (TR-FRET); read-out: TR-FRET hcCbl IC50. (Time-resolved FRET reads energy transfer from a long-lived donor to a nearby acceptor.)

In experiment [2] the target is Recombinant human Cbl-b (aa 36-427) (Homo sapiens, UniProt Q13191). Put plainly: Cbl-b Biochemical Assay (TR-FRET). The note with it: read-out: TR-FRET hCbl-b IC50.
Sequence of Recombinant human Cbl-b (aa 36-427) (Q13191 36-427): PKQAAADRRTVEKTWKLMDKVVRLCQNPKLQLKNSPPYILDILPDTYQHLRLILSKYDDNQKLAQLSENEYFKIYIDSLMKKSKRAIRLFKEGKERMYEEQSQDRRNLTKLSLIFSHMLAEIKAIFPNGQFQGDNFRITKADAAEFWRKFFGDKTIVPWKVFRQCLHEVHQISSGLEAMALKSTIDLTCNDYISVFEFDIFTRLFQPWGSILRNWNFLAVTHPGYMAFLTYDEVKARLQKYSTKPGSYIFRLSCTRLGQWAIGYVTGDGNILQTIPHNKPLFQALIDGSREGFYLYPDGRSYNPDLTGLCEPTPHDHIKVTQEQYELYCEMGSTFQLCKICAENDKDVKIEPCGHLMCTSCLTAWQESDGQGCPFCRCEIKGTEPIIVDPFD

IC50 data for 25 compounds are collected here from US20250163038A1, “CBL-B MODULATORS AND USES THEREOF” (Nimbus Clio, Inc., priority 2021, published 2025).

In the case of `Cn1cnnc1CC1(c2cccc(-c3nc4ccc(Br)c(C(F)(F)F)c4[nH]3)c2)COC1` [BA-1, 6-Bromo-2-(3-(3-((4-methyl-4H-1,2,4-triazol-3-yl)methyl)oxetan-3-yl)phenyl)-7-(trifluoromethyl)-1H-benzo[d]imidazole], the half-inhibitory concentration (IC50) (commonly the concentration at which inhibition is half-maximal) in experiment [1] fell in the range of 10 to 50 µM; in experiment [2], 1 to 10 µM.
For `Cn1cnnc1-c1ccccc1-c1cccc(-c2nc3ccc(N)c(C(F)(F)F)c3[nH]2)c1` [BE-2, 2-(2′-(4-Methyl-4H-1,2,4-triazol-3-yl)-[1,1′-biphenyl]-3-yl)-7-(trifluoromethyl)-1H-benzo[d]imidazol-6-amine] the same measures were 10 to 50 µM and 10 to 50 µM.
Take `Cn1cnnc1-c1ccccc1-c1cccc(-c2nc3ccc(OCCN4CCCC4)c(C(F)(F)F)c3[nH]2)c1` [BG-1, 2-(2′-(4-Methyl-4H-1,2,4-triazol-3-yl)-[1,1′-biphenyl]-3-yl)-6-(2-(pyrrolidine-1-yl)ethoxy)-7-(trifluoromethyl)-1H-benzo[d]imidazole]: the IC50 in experiment [1] and in experiment [2] was 10 to 50 µM each time.
Consider `CN1CC[C@@H](Oc2ccc3nc(-c4cccc(-c5ccccc5-c5nncn5C)c4)[nH]c3c2C(F)(F)F)C1` [BH-3, (R)-2-(2′-(4-Methyl-4H-1,2,4-triazol-3-yl)-[1,1′-biphenyl]-3-yl)-6-((1-methylpyrrolidin-3-yl)oxy)-7-(trifluoromethyl)-1H-benzo[d]imidazole], for which the concentration for half-maximal inhibition (IC50) in experiment [1] and in experiment [2] was 10 to 50 µM each time.
Regarding `Cn1cnnc1-c1cc(F)ccc1-c1cccc(-c2nc3cccc(C(F)(F)F)c3[nH]2)c1` [BI-1, 2-(4′-Fluoro-2′-(4-methyl-4H-1,2,4-triazol-3-yl)-[1,1′-biphenyl]-3-yl)-7-(trifluoromethyl)-1H-benzo[d]imidazole], the IC50 in experiment [1] lay within 10 to 50 µM; in experiment [2], 0.2 to 1 µM.
For `Cn1cnnc1-c1cc(F)ccc1-c1cccc(-c2nc3cc(CNC4(CO)COC4)cc(C(F)(F)F)c3[nH]2)c1` [BS-1, (3-(((2-(4′-Fluoro-2′-(4-methyl-4H-1,2,4-triazol-3-yl)-[1,1′-biphenyl]-3-yl)-7-(trifluoromethyl)-1H-benzo[d]imidazol-5-yl)methyl)amino)oxetan-3-yl)methanol] the same measures were 1 to 10 µM and below 0.2 µM.
For `Cn1cnnc1-c1cc(F)ccc1-c1cccc(-c2nc3cc(CO)ccc3[nH]2)c1` [BW-3, (2-(4′-Fluoro-2′-(4-methyl-4H-1,2,4-triazol-3-yl)-[1,1′-biphenyl]-3-yl)-1H-benzo[d]imidazol-5-yl)methanol] the same measures were 10 to 50 µM and 10 to 50 µM.
Take `Cn1cnnc1-c1cc(F)ccc1-c1cccc(-c2nc3cc(CNCC(C)(C)O)ccc3[nH]2)c1` [BX-2, 1-(((2-(4′-Fluoro-2′-(4-methyl-4H-1,2,4-triazol-3-yl)-[1,1′-biphenyl]-3-yl)-1H-benzo[d]imidazol-5-yl)methyl)amino)-2-methylpropan-2-ol]: the IC50 in experiment [1] is 10 to 50 µM; in experiment [2], 0.2 to 1 µM.
For `Cn1cnnc1-c1cc(C#N)ccc1-c1cccc(-c2nc3cc(CO)cc(C(F)(F)F)c3[nH]2)c1` [BZ-1, 3′-(5-(Hydroxymethyl)-7-(trifluoromethyl)-1H-benzo[d]imidazol-2-yl)-2-(4-methyl-4H-1,2,4-triazol-3-yl)-[1,1′-biphenyl]-4-carbonitrile] the same measures were 10 to 50 µM and 1 to 10 µM.
For `Cn1cnnc1-c1cc(C#N)ccc1-c1cccc(-c2nc3cccc(C(F)(F)F)c3[nH]2)c1` [CB-1, 2-(4-Methyl-4H-1,2,4-triazol-3-yl)-3′-(4-(trifluoromethyl)-1H-benzo[d]imidazol-2-yl)-[1,1′-biphenyl]-4-carbonitrile] the same measures were 10 to 50 µM and 10 to 50 µM.
For `Cn1cnnc1CC1(c2cccc(-c3cc(C(F)(F)F)cn(C)c3=O)c2)COC1` [CF-2, 1-Methyl-3-(3-(3-((4-methyl-4H-1,2,4-triazol-3-yl)methyl)oxetan-3-yl)phenyl)-5-(trifluoromethyl)pyridin-2(1H)-one] the same measures were 10 to 50 µM and 10 to 50 µM.
As to `COC(=O)c1[nH]c(=O)c(-c2cccc(-c3ccccc3-c3nncn3C)c2)cc1C(F)(F)F` [CH-2, Methyl 5-(2′-(4-methyl-4H-1,2,4-triazol-3-yl)-[1,1′-biphenyl]-3-yl)-6-oxo-3-(trifluoromethyl)-1,6-dihydropyridine-2-carboxylate], the half-inhibitory concentration (IC50) in experiment [1] and in experiment [2] was 10 to 50 µM throughout.
On to `CCN(Cc1cc(C(F)(F)F)c2oc(-c3cccc(-c4ccc(F)cc4-c4nncn4C)c3)nc2c1)CC1(C#N)CCCC1` [CO-2, 1-((Ethyl((2-(4′-fluoro-2′-(4-methyl-4H-1,2,4-triazol-3-yl)-[1,1′-biphenyl]-3-yl)-7-(trifluoromethyl)benzo[d]oxazol-5-yl)methyl)amino)methyl)cyclopentane-1-carbonitrile], for which the values for the concentration for half-maximal inhibition (IC50) in experiment [1] and in experiment [2] were 1 to 10 µM and below 0.2 µM, respectively.
For `Cn1cnnc1-c1cc(F)ccc1-c1cccc(-c2nc3cc(C(=O)N[C@@H]4CCC[C@@H]4O)cc(C(F)(F)F)c3o2)c1` [DB-2, 2-(4′-Fluoro-2′-(4-methyl-4H-1,2,4-triazol-3-yl)-[1,1′-biphenyl]-3-yl)-N-((1R,2S)-2-hydroxycyclopentyl)-7-(trifluoromethyl)benzo[d]oxazole-5-carboxamide] the same measures were 1 to 10 µM and 0.2 to 1 µM.
For `Cn1cnnc1-c1cc(F)ccc1-c1cccc(-c2nc3ccc(CO)cc3o2)c1` [DC-3, (2-(4′-Fluoro-2′-(4-methyl-4H-1,2,4-triazol-3-yl)-[1,1′-biphenyl]-3-yl)benzo[d]oxazol-6-yl)methanol] the same measures were 10 to 50 µM and 1 to 10 µM.
For `CC(=O)c1cc(C(F)(F)F)c2oc(-c3cccc(-c4ccc(F)cc4-c4nncn4C)c3)nc2c1` [DK-1, 1-(2-(4′-Fluoro-2′-(4-methyl-4H-1,2,4-triazol-3-yl)-[1,1′-biphenyl]-3-yl)-7-(trifluoromethyl)benzo[d]oxazol-5-yl)ethan-1-one] the same measures were 1 to 10 µM and below 0.2 µM.
For the compound `C[C@@H]1CN(Cc2cc(C(F)(F)F)c3oc(-c4cccc(-c5ccccc5-c5nncn5C)c4)nc3c2)CCO1` [Example 0-4, (R)-2-(2′-(4-Methyl-4H-1,2,4-triazol-3-yl)-[1,1′-biphenyl]-3-yl)-5-((2-methylmorpholino)methyl)-7-(trifluoromethyl)benzo[d]oxazole], the IC50 in experiment [1] lay in the range of 10 to 50 µM; in experiment [2] it was 0.2 to 1 µM.
Regarding `Cn1cnnc1-c1ccccc1-c1cccc(-c2nc3cc(CO)cc(C(F)(F)F)c3o2)c1` [Example F-5, (2-(2′-(4-Methyl-4H-1,2,4-triazol-3-yl)-[1,1′-biphenyl]-3-yl)-7-(trifluoromethyl)benzo[d]oxazol-5-yl)methanol], the figures for the IC50 in experiment [1] and in experiment [2] were 10 to 50 µM and 1 to 10 µM, respectively.
For the compound `COC(=O)c1cc(C(F)(F)F)c2oc(-c3cccc(-c4ccccc4-c4nncn4C)c3)nc2c1` [Example G-1, Methyl 2-(2′-(4-methyl-4H-1,2,4-triazol-3-yl)-[1,1′-biphenyl]-3-yl)-7-(trifluoromethyl)benzo[d]oxazole-5-carboxylate], the 50% inhibitory concentration (IC50) in experiment [1] and in experiment [2] was 10 to 50 µM each time.
Take `Cn1cnnc1-c1ccccc1-c1cccc(-c2nc3cc(C(=O)O)cc(C(F)(F)F)c3o2)c1` [Example H-1, 2-(2′-(4-Methyl-4H-1,2,4-triazol-3-yl)-[1,1′-biphenyl]-3-yl)-7-(trifluoromethyl)benzo[d]oxazole-5-carboxylic Acid]: the half-inhibitory concentration (IC50) in experiment [1] and in experiment [2] was 10 to 50 µM each time.
In the case of `C[C@H]1CCCN(C(=O)c2cc(C(F)(F)F)c3oc(-c4cccc(-c5ccccc5-c5nncn5C)c4)nc3c2)C1` [Example I-2, (S)-(2-(2′-(4-Methyl-4H-1,2,4-triazol-3-yl)-[1,1′-biphenyl]-3-yl)-7-(trifluoromethyl)benzo[d]oxazol-5-yl)(3-methylpiperidin-1-yl)methanone], the 50% inhibitory concentration (IC50) in experiment [1] and in experiment [2] was 10 to 50 µM in each case.
As to `Cn1cnnc1-c1ccccc1-c1cccc(-c2nc3cc(C(C)(C)O)cc(C(F)(F)F)c3o2)c1` [Example J-1, 2-(2-(2′-(4-Methyl-4H-1,2,4-triazol-3-yl)-[1,1′-biphenyl]-3-yl)-7-(trifluoromethyl)benzo[d]oxazol-5-yl)propan-2-ol], the IC50 in experiment [1] and in experiment [2] was 10 to 50 µM in each case.
In the case of `Cn1cnnc1-c1ccccc1-c1cccc(-c2nc3cccc(C(F)(F)F)c3o2)c1` [Example K-2, 2-(2′-(4-Methyl-4H-1,2,4-triazol-3-yl)-[1,1′-biphenyl]-3-yl)-7-(trifluoromethyl)benzo[d]oxazole], the IC50 in experiment [1] and in experiment [2] was 10 to 50 µM throughout.
In the case of `C[C@@H]1CCCN(Cc2cc(C(F)(F)F)c3oc(-c4cccc(-c5ccccc5-c5nncn5C)c4)nc3c2)C1` [Example L-4, (R)-2-(2′-(4-Methyl-4H-1,2,4-triazol-3-yl)-[1,1′-biphenyl]-3-yl)-5-((3-methylpiperidin-1-yl)methyl)-7-(trifluoromethyl)benzo[d]oxazole], the IC50 in experiment [1] is 10 to 50 µM; in experiment [2], 1 to 10 µM.
For `Cn1cnnc1-c1ccccc1-c1cccc(-c2nc3cc(CN(C(=O)OC(C)(C)C)[C@@H]4CCC[C@H]4O)cc(C(F)(F)F)c3o2)c1` [Example M-5, tert-Butyl ((1R,2R)-2-hydroxycyclopentyl)((2-(2′-(4-methyl-4H-1,2,4-triazol-3-yl)-[1,1′-biphenyl]-3-yl)-7-(trifluoromethyl)benzo[d]oxazol-5-yl)methyl)carbamate] the same measures were 10 to 50 µM and 0.2 to 1 µM.
